The values that follow come from paper PMC10854447 (Journal of Enzyme Inhibition and Medicinal Chemistry, 2024).

The nature of data set [1]: Cell viability assay. The data set is classed as cell-based. The conditions noted are these: human, MCF-10A normal mammary gland epithelial cells.
Data set [2] has as its system lung cancer (A-549) cell line. In words: cells. As to conditions: Homo sapiens, A549, read-out: Antiproliferative activity IC50 ± SEM, A-549.
Data set [3] relates to breast cancer (MCF-7) cell line. Put plainly: cells. As to conditions: Homo sapiens, MCF7, read-out: Antiproliferative activity IC50 ± SEM, MCF-7.
Data set [4] deals with pancreatic cancer (Panc-1) cell line. In words: cells. As to conditions: Homo sapiens, PANC-1, read-out: Antiproliferative activity IC50 ± SEM, Panc-1.
Data set [5] concerns colon cancer (HT-29) cell line. Put plainly: cells. The conditions noted are these: Homo sapiens, HT-29, read-out: Antiproliferative activity IC50 ± SEM, HT-29.
For data set [6], the system named is four cancer cell lines (A-549, MCF-7, Panc-1, HT-29). In words: Antiproliferative assay, average over the four cancer cell lines. The conditions noted are these: for fold less potent than the reference Erlotinib (GI50): GI50 ratio vs Erlotinib.
For data set [7], the system named is panel of four cancer cell lines. As to conditions: read-out: GI50 against four cancer cell lines; cited from earlier work.
Data set [8] addresses EGFR (Homo sapiens, UniProt P00533). Put plainly: EGFR inhibitory assay. The data set is classed as biochemical.
Data set [9] has as its target VEGFR-2 (Homo sapiens, UniProt P35968). Put plainly: VEGFR-2 inhibitory assay. It counts as biochemical. As to conditions: VEGFR-2 inhibition IC50 ± SEM.
Data set [10] relates to Caspase-3. Put plainly: Caspase-3 activation assay. As to conditions: A-594 cancer cell line; for Caspase-3 Fold change: vs untreated control cells. The data set is classed as cell-based, human.
The test system of data set [11] is Caspase-8. In words: Caspase-8 level assay. The data set is classed as cell-based, human. As to conditions: A-594 cancer cell line; for Caspase-8 Fold change: vs untreated control.
For data set [12], the system named is Bax. In words: Bax level assay. It counts as cell-based, human. The conditions noted are these: A-594 cancer cell line; for Bax Fold change: vs untreated control.
Data set [13] has as its system Bcl-2. Put plainly: Bcl-2 level assay. It counts as cell-based, human. As to conditions: A-594 cancer cell line; for Bcl-2 Fold reduction: vs untreated control.

Chain of VEGFR-2 (P35968 20-1356): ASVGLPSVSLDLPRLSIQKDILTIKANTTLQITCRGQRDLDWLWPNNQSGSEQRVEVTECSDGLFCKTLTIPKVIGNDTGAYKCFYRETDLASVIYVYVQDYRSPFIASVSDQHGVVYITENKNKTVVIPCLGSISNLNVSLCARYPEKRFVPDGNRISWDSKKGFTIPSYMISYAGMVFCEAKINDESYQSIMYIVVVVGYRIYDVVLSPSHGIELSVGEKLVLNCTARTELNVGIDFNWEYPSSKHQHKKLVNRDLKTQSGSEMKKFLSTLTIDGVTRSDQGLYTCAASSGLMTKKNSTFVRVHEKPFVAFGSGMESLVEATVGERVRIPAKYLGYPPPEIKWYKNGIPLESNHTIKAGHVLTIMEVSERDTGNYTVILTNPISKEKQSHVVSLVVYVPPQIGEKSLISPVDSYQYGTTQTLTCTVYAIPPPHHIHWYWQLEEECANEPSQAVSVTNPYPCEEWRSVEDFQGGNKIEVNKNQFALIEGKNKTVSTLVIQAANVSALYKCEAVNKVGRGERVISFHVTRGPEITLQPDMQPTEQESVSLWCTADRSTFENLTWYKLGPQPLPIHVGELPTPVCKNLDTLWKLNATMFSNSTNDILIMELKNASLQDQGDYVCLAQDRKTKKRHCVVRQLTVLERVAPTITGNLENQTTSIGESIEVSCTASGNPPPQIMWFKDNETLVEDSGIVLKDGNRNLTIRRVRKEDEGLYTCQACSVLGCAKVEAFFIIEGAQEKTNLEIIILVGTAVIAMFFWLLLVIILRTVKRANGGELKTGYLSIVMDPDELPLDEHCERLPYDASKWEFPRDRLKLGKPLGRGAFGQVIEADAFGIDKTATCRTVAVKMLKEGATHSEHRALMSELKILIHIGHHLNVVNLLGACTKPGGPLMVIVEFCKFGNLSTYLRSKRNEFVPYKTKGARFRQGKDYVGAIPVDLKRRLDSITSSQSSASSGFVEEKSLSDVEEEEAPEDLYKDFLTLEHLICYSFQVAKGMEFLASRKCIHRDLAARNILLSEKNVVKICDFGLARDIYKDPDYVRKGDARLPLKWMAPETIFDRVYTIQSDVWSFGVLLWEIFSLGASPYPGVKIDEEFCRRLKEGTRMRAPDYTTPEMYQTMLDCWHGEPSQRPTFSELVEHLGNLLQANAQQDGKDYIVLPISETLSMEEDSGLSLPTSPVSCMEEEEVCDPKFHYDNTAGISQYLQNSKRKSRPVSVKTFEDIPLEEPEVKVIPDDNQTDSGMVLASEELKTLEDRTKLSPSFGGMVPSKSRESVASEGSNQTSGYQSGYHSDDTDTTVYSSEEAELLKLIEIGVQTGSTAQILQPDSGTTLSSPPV
Chain of EGFR (P00533 669-1210): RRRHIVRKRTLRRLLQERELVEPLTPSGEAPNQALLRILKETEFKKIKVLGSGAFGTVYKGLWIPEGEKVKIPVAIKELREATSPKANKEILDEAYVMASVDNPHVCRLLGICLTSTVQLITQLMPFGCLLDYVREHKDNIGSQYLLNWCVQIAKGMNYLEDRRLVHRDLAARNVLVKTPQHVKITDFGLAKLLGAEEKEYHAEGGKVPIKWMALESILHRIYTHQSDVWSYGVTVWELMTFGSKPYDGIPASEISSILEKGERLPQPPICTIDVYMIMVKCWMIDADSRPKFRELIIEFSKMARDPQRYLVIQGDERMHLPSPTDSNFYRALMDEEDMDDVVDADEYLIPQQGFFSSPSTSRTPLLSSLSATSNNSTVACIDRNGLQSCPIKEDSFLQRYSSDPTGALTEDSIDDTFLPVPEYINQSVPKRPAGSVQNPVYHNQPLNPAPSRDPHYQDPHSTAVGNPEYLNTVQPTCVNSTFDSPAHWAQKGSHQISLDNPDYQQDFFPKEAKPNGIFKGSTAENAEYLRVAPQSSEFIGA

In general, viability refers to the share of living cells, or the viability signal relative to a control. Read a high viability as better survival. In general, IC50 refers to the concentration that inhibits the measured activity by half. Regarding `Fc1ccc(-c2noc(Cn3cc(-c4ccccc4)nn3)n2)cc1` [Compound 7b, 3-(4-Fluorophenyl)-5-[(4-phenyl-1H-1,2,3-triazol-1-yl)methyl]-1,2,4-oxadiazole], the viability at 4 days, 50 µM in [1] was 91%. Besides, the 50% inhibitory concentration (IC50) in [2] was determined as 102 ± 10 nM; in [3], 106 ± 10 nM; in data set [4], 104 ± 10 nM; in data set [5], 104 ± 10 nM. For the same compound, the “fold less active than the 3-halo-substituted derivatives 7i and 7h (GI50)” value in data set [6] (GI50 ratio vs 7i and 7h) was determined as 2.5 fold.
In data set [1], `Clc1ccc(-c2noc(Cn3cc(-c4ccccc4)nn3)n2)cc1` [Compound 7c, 3-(4-Chlorophenyl)-5-[(4-phenyl-1H-1,2,3-triazol-1-yl)methyl]-1,2,4-oxadiazole] displayed a viability at 4 days, 50 µM of 89%. In addition, the IC50 came to 87 ± 8 nM in data set [2], 94 ± 9 nM in data set [3], 90 ± 9 nM in [4] and 92 ± 9 nM in data set [5].
`c1ccc(-c2cn(Cc3nc(-c4ccccc4)no3)nn2)cc1` [Compound 7a, 3-Phenyl-5-[(4-phenyl-1H-1,2,3-triazol-1-yl)methyl]-1,2,4-oxadiazole] yielded a viability at 4 days, 50 µM in data set [1] of 90%. The IC50 in [2] worked out at 94 ± 9 nM; in data set [3] it was 98 ± 9 nM; in [4], 96 ± 9 nM; in [5], 96 ± 9 nM. In addition, the “fold less potent than the reference Erlotinib (GI50)” value in data set [6] was found to be 3 fold.
A word on the GI50: it is the concentration that inhibits growth by half. On to `C#Cc1cccc(Nc2ncnc3cc(OCCOC)c(OCCOC)cc23)c1` [Erlotinib, reference compound], for which the IC50 worked out at 30 ± 3 nM in [2], 40 ± 3 nM in data set [3], 30 ± 3 nM in data set [4] and 30 ± 3 nM in data set [5]. In addition, in [7], the GI50 was 33 nM.
For the compound `c1ccc(-c2cn(Cc3nc(-c4ccc5c(c4)OCO5)no3)nn2)cc1` [Compound 7o, 3-(2H-1,3-Benzodioxol-5-yl)-5-[(4-phenyl-1H-1,2,3-triazol-1-yl)methyl]-1,2,4-oxadiazole], in [1], the viability at 4 days, 50 µM was 91%. Moreover, the IC50 in data set [2] was 74 ± 7 nM; in data set [3], 80 ± 8 nM; in data set [4] it was 78 ± 7 nM; in [5], 76 ± 7 nM.
Compound `Clc1cccc(-c2noc(Cn3cc(-c4ccccc4)nn3)n2)c1` [Compound 7h, 3-(3-Chlorophenyl)-5-[(4-phenyl-1H-1,2,3-triazol-1-yl)methyl]-1,2,4-oxadiazole] came in with a viability at 4 days, 50 µM in data set [1] of 90%. Further, the IC50 amounted to 105 ± 10 nM in [8]; 6.9 ± 0.07 nM in [9]; 40 ± 4 nM in data set [2]; 44 ± 4 nM in data set [3]; 40 ± 4 nM in [4]; 42 ± 4 nM in data set [5].
`c1ccc(-c2cn(Cc3nc(-c4cccc5ccccc45)no3)nn2)cc1` [Compound 7m, 3-(Naphthalen-1-yl)-5-[(4-phenyl-1H-1,2,3-triazol-1-yl)methyl]-1,2,4-oxadiazole] returned a viability at 4 days, 50 µM in data set [1] of 87%. The IC50 was 42 ± 4 nM in data set [2], 48 ± 4 nM in data set [3], 46 ± 4 nM in data set [4] and 44 ± 4 nM in data set [5]. In [6], the “fold less potent than the reference Erlotinib (GI50)” value stood at 1.4 fold.
Consider `Brc1cccc(-c2noc(Cn3cc(-c4ccccc4)nn3)n2)c1` [Compound 7i, 3-(3-Bromophenyl)-5-[(4-phenyl-1H-1,2,3-triazol-1-yl)methyl]-1,2,4-oxadiazole], for which, in data set [1], the viability at 4 days, 50 µM was found to be 89%. In addition, the half-maximal inhibitory concentration (IC50) in data set [8] amounted to 97 ± 9 nM; in data set [9] it was 5.5 ± 0.05 nM; in data set [2] it was 36 ± 3 nM; in [3], 39 ± 3 nM; in [4], 37 ± 3 nM; in [5], 37 ± 3 nM.
Turning to `c1ccc(-c2cn(Cc3nc(-c4ccc5ccccc5c4)no3)nn2)cc1` [Compound 7n, 3-(Naphthalen-2-yl)-5-[(4-phenyl-1H-1,2,3-triazol-1-yl)methyl]-1,2,4-oxadiazole], in data set [1], the viability at 4 days, 50 µM amounted to 89%. Besides, the IC50 was 68 ± 6 nM in [2], 74 ± 7 nM in data set [3], 70 ± 7 nM in data set [4] and 72 ± 7 nM in data set [5]. In data set [6] (GI50 ratio vs 7m), the “fold less potent than the 1-naphthyl derivative 7m (GI50)” value was 1.7 fold. Also, in data set [6], the “fold less potent than the reference Erlotinib (GI50)” value was 2.4 fold.
The compound `Cc1ccc(-c2noc(Cn3cc(-c4ccccc4)nn3)n2)cc1` [Compound 7e, 3-(4-Methylphenyl)-5-[(4-phenyl-1H-1,2,3-triazol-1-yl)methyl]-1,2,4-oxadiazole] came in with a viability at 4 days, 50 µM in [1] of 91%. In addition, the IC50 in [2] came out at 98 ± 9 nM; in [3], 102 ± 9 nM; in [4], 100 ± 10 nM; in [5], 102 ± 10 nM. The “fold less potent than the reference Erlotinib (GI50)” value in [6] is listed as 3 fold.
As for `Clc1ccc(-c2noc(Cn3cc(-c4ccccc4)nn3)n2)c(Cl)c1` [Compound 7j, 3-(2,4-Dichlorophenyl)-5-[(4-phenyl-1H-1,2,3-triazol-1-yl)methyl]-1,2,4-oxadiazole], the viability at 4 days, 50 µM in data set [1] was 91%. For the same compound, the IC50 in data set [8] was found to be 89 ± 8 nM; in data set [9], 4.7 ± 0.04 nM; in [2], 33 ± 3 nM; in [3] it was 36 ± 3 nM; in [4], 34 ± 3 nM; in [5] it was 36 ± 3 nM. Also, in data set [10], the “Caspase-3 Conc” value stood at 460 ± 4 pg/mL. For the same compound, the “Caspase-3 Fold change” value in [10] is recorded as 7.0. Also, the “Caspase-8 Conc” value in [11] is 2.00 ng/mL. For the same compound, the “Caspase-8 Fold change” value in data set [11] was determined as 22. The “Bax Conc” value in data set [12] turned out to be 291 pg/mL. For the same compound, the “Bax Fold change” value in [12] was determined as 32. In addition, in [13], the “Bcl-2 Conc” value is given as 0.95 ng/mL. In addition, the “Bcl-2 Fold reduction” value in [13] turned out to be 5.
Turning to `Brc1ccc(-c2noc(Cn3cc(-c4ccccc4)nn3)n2)cc1` [Compound 7d, 3-(4-Bromophenyl)-5-[(4-phenyl-1H-1,2,3-triazol-1-yl)methyl]-1,2,4-oxadiazole], the viability at 4 days, 50 µM in data set [1] was found to be 88%. Also, the IC50 in [2] was 80 ± 8 nM; in data set [3] it was 84 ± 8 nM; in [4], 80 ± 8 nM; in data set [5], 82 ± 8 nM.
In data set [1], `FC(F)(F)c1ccc(-c2noc(Cn3cc(-c4ccccc4)nn3)n2)cc1` [Compound 7g, 3-(4-Trifluoromethylphenyl)-5-[(4-phenyl-1H-1,2,3-triazol-1-yl)methyl]-1,2,4-oxadiazole] had a viability at 4 days, 50 µM of 87%. The IC50 is 66 ± 6 nM in data set [2], 68 ± 6 nM in data set [3], 68 ± 6 nM in data set [4] and 66 ± 6 nM in [5].
Consider `COc1cc(-c2noc(Cn3cc(-c4ccccc4)nn3)n2)cc(OC)c1OC` [Compound 7l, 3-(3,4,5-Trimethoxyphenyl)-5-[(4-phenyl-1H-1,2,3-triazol-1-yl)methyl]-1,2,4-oxadiazole], for which, in [1], the viability at 4 days, 50 µM was 88%. The compound further came in with an IC50 in [9] of 4.7 nM. Besides, in data set [10], the “Caspase-3 Conc” value is 587 ± 5 pg/mL and the “Caspase-3 Fold change” value is 9. Also, in [11], the “Caspase-8 Conc” value was determined as 2.55 ng/mL and the “Caspase-8 Fold change” value came out at 28. Besides, in data set [12], the “Bax Conc” value worked out at 362 pg/mL and the “Bax Fold change” value is on record as 40. For the same compound, in [13], the “Bcl-2 Conc” value amounted to 0.60 ng/mL and the “Bcl-2 Fold reduction” value is recorded as 8. The IC50 in [2] came to 26 ± 2 nM. Moreover, the 50% inhibitory concentration (IC50) in data set [3] was 30 ± 3 nM. Also, the IC50 in data set [4] was 28 ± 2 nM. For the same compound, the IC50 in data set [5] worked out at 28 ± 2 nM.
With `COc1ccc(-c2noc(Cn3cc(-c4ccccc4)nn3)n2)cc1OC` [Compound 7k, 3-(3,4-Dimethoxyphenyl)-5-[(4-phenyl-1H-1,2,3-triazol-1-yl)methyl]-1,2,4-oxadiazole], the viability at 4 days, 50 µM in data set [1] was 89%. For the same compound, the IC50 turned out to be 82 ± 7 nM in data set [8]; 3.8 ± 0.03 nM in data set [9]; 30 ± 3 nM in data set [2]; 35 ± 3 nM in [3]; 32 ± 3 nM in [4]; 32 ± 3 nM in data set [5]. The “Caspase-3 Conc” value in [10] was 530 ± 5 pg/mL. Besides, the “Caspase-3 Fold change” value in [10] is recorded as 8. For the same compound, the “Caspase-8 Conc” value in [11] turned out to be 2.30 ng/mL. The “Caspase-8 Fold change” value in data set [11] worked out at 25. Moreover, the “Bax Conc” value in data set [12] is 310 pg/mL. In addition, the “Bax Fold change” value in [12] stood at 34. In addition, in data set [13], the “Bcl-2 Conc” value came out at 0.80 ng/mL. Also, the “Bcl-2 Fold reduction” value in [13] is 6.
For `CN[C@@H]1C[C@H]2O[C@@](C)([C@@H]1OC)n1c3ccccc3c3c4c(c5c6ccccc6n2c5c31)C(=O)NC4` [Staurosporine, reference compound], the “Caspase-3 Conc” value in [10] was 465 ± 4 pg/mL. In data set [12], the “Bax Conc” value came out at 288 pg/mL. In [13], the “Bcl-2 Conc” value is 1.00 ng/mL.
On to `COc1ccc(-c2noc(Cn3cc(-c4ccccc4)nn3)n2)cc1` [Compound 7f, 3-(4-Methoxyphenyl)-5-[(4-phenyl-1H-1,2,3-triazol-1-yl)methyl]-1,2,4-oxadiazole], for which the viability at 4 days, 50 µM in data set [1] was 90%. Also, the 50% inhibitory concentration (IC50) in data set [2] was determined as 48 ± 4 nM; in data set [3], 51 ± 5 nM; in data set [4], 48 ± 4 nM; in data set [5] it was 46 ± 4 nM.
